# Source: paper PMC10730845, “Endoxifen downregulates AKT phosphorylation through protein kinase C beta 1 inhibition in ERα+ breast cancer” (NPJ Breast Cancer, 2023)
# Experiments:
# [1] = tested on: MCF7AC1 aromatase inhibitor-sensitive and -resistant models; parameters: method as in PMID 32430040; conditions: cited from earlier work
# [2] = tested on: AKT phosphorylation (pAKT^Ser473, pAKT^Thr308, p-AKT substrates) in MCF7AC1 cells; experiment: Immunoblot of AKT signaling and PARP cleavage, MCF7AC1; format: cell-based, human
# Procedure: The ENDX hydrochloride utilized in this study was synthesized in collaboration between Mayo Clinic and National Institute of Health (NIH). Estrogen deprived MCF7AC1 were treated with vehicle control or ENDX (National Cancer Institute) for 24 h. […] For the insulin (Sigma-Aldrich, #I0516) experiments, MCF7AC1 and T47D cells were maintained in serum-free medium for 24 h prior to pretreatment with vehicle control or drugs for 2 h followed by treatment with 100 nM insulin for 1 h.
# (§1) Protein lysates were prepared using the RIPA lysis buffer system (ChemCruz #sc-24948) and quantified using the DC^TM Protein Assay reagents (Bio-Rad #5000112). Equal amounts of protein lysates were separated on 10% Criterion gels (Bio-Rad #3450112), transferred to PVDF membranes (Bio-Rad #1620177), blocked in TBST-5% milk and probed with primary antibodies listed in Supplementary Table 5, at the indicated dilutions. Membranes were incubated with HRP-conjugated anti-rabbit (CST #7074) or anti-mouse (CST #7076) secondary antibodies and visualized using chemiluminescent West Pico (Thermo Scientific #34580) or West Femto (Thermo Scientific #34096) reagents and a Li-Cor Odyssey® XF imager. Protein lysates from the MCF7AC1 xenograft model were obtained from a previous study. Quantitation of the protein bands signal intensity was performed using the NIH ImageJ image analysis software (https://imagej.nih.gov/ij///index.html). For the quantitation of the phospho protein levels, we first normalized total protein levels to β-actin loading control and used these values to normalize the phospho protein levels and compared change in protein expression levels relative to vehicle control normalized to 1.0. For the quantitation of total protein levels, we normalized the total protein levels to β-actin and compared change in expression levels relative to vehicle control normalized to 1.0. All blots were processed in parallel and derived from the same experiments. Unprocessed immunoblot images are provided in Supplementary Figs. 9–13.
# PKC nu (PKCn/PRKD3) = PKC nu (PKCn/PRKD3) (Homo sapiens, UniProt O94806); experiment: In vitro kinase assay, PKC nu; format: biochemical; conditions: 10 μM ATP
# Chain of PKC nu (PKCn/PRKD3) (O94806 whole entry): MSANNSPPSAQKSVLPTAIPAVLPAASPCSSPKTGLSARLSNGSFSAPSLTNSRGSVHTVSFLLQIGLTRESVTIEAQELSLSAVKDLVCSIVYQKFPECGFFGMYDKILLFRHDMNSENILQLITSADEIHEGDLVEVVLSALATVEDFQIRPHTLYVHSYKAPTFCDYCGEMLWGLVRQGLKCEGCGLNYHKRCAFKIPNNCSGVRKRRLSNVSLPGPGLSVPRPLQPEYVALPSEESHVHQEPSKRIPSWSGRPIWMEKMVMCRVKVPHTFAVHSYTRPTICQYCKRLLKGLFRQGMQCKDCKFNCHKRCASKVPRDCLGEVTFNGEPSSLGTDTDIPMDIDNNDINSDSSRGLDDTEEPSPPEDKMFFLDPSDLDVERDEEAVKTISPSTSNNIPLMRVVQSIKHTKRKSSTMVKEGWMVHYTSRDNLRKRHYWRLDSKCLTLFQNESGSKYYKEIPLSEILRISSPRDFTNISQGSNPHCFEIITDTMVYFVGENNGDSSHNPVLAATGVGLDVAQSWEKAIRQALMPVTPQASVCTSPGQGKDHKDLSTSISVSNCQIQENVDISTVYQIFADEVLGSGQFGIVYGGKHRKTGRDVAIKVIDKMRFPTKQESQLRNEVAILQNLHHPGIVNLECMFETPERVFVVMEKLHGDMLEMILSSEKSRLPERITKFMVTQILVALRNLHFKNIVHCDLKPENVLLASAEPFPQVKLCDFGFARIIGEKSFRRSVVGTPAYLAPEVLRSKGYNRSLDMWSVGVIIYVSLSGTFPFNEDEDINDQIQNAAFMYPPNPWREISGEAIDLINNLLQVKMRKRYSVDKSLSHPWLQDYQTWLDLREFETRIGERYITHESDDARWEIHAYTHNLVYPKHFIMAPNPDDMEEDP
# From the text: (§2) Supplementary Table 4. In vitro kinase assay showing the IC 50 concentration of ENDX and
# (§3) of the 12 PKC family members.
# (§4) (1 picture or pasted object on this page, not shown here)
# PKCβ1 in MCF7AC1 cells = experiment: Immunoblot of PKCβ1 and pPKCβ1^Ser661, MCF7AC1; format: cell-based, human; conditions: serum starved; for Effect on PMA-stimulated PKCβ1^Ser661 phosphorylation: 2 h pretreatment, 200 nM PMA 20 min
# Procedure: The ENDX hydrochloride utilized in this study was synthesized in collaboration between Mayo Clinic and National Institute of Health (NIH). Estrogen deprived MCF7AC1 were treated with vehicle control or ENDX (National Cancer Institute) for 24 h. For the phorbol 12-myristate 13-acetate (PMA) (LC Laboratories, #P-1680) experiments, MCF7AC1 cells were maintained in serum-free medium for 24 h prior to pretreatment with vehicle or ENDX for 2 h followed by treatment with 20 or 200 nM PMA for 20 min. For the insulin (Sigma-Aldrich, #I0516) experiments, MCF7AC1 and T47D cells were maintained in serum-free medium for 24 h prior to pretreatment with vehicle control or drugs for 2 h followed by treatment with 100 nM insulin for 1 h.
# as §1
# [3] = parameters: method as in PMID 24853369, PMID 28977607; conditions: low (10 mg/kg) and high (50 mg/kg) doses; cited from earlier work
# BT549 cells = experiment: Crystal violet growth assay, BT549; format: cell-based, human; conditions: day seven
# From the text: (§5) Supplementary Figure 8. […]
# (§6) ANOVA. b, Effects of ENDX on cell proliferation at the indicated concentrations on day seven of
# (§7) treatment. […]
# MDAMB436 cells = experiment: Crystal violet growth assay, MDAMB436; format: cell-based, human; conditions: day seven
# From the text: as §5, §6, §7
# PKC zeta (PKCz) = PKC zeta (PKCz) (Homo sapiens, UniProt Q05513); experiment: In vitro kinase assay, PKC zeta; format: biochemical; conditions: 10 μM ATP
# Chain of PKC zeta (PKCz) (Q05513 whole entry): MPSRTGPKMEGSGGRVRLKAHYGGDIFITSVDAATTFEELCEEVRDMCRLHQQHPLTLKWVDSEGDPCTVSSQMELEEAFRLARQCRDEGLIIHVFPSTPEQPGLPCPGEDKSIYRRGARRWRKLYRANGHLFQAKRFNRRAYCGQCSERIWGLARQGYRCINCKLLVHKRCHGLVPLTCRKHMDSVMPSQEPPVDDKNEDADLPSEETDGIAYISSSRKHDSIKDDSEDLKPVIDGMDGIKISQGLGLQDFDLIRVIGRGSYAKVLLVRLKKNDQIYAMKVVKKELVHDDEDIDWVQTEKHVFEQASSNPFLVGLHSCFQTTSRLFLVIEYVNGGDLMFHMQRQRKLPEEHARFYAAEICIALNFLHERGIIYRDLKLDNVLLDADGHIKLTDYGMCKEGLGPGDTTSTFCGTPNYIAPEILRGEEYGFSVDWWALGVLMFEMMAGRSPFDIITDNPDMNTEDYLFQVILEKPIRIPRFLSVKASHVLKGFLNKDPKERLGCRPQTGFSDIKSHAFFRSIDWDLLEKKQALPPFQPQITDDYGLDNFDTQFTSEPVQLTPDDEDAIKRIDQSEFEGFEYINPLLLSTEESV
# From the text: as §2, §3, §4
# [4] = cited from earlier work
# PKC eta (PKCh) = PKC eta (PKCh) (Homo sapiens, UniProt P24723); experiment: In vitro kinase assay, PKC eta; format: biochemical; conditions: 10 μM ATP
# Chain of PKC eta (PKCh) (P24723 whole entry): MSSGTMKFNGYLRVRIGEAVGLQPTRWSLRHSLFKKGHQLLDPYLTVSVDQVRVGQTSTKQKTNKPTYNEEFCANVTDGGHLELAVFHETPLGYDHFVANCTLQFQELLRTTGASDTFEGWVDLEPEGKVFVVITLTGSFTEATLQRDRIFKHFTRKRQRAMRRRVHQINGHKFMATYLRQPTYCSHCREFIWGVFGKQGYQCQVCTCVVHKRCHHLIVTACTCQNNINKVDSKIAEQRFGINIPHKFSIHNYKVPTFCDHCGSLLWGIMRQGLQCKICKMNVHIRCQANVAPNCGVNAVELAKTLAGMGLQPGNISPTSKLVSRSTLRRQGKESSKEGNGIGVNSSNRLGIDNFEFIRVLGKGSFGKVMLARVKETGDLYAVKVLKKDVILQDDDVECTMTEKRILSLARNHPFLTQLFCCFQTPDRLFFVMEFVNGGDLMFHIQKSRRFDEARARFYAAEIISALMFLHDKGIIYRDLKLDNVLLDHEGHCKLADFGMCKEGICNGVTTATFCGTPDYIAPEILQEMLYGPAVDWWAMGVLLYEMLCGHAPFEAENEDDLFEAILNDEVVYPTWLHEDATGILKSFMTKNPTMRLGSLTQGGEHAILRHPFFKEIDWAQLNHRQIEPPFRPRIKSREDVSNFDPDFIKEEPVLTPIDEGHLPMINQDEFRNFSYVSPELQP
# From the text: as §2, §3, §4
# MCF7AC1 cells = experiment: Crystal violet cell viability / proliferation assay, MCF7AC1; format: cell-based, human; conditions: CSS medium, 48 h, 0 to 10 µM tested
# Procedure: Fig. 1 Z-endoxifen (ENDX) effects on cell viability and apoptosis in estrogen deprived ERα+ /HER2- MCF7AC1 cells. a Cells grown in CSS medium were treated with vehicle control or the indicated ENDX concentrations for […]. Cell viability was assessed by the crystal violet assay. b Cells were co-treated with vehicle control or the indicated ENDX concentrations, IncuCyte Annexin V green and NucLight red reagents in CSS medium for 48 h. […] Data represents the mean of six wells per treatment performed as biological duplicates ± s.d. **p ≤ 0.01; ***p ≤ 0.001; ****p ≤ 0.0001 by one-way ANOVA.
# Cells were plated at a density of 2000 cells per well. Cell viability of (i) vehicle or drug treated MCF7AC1 and T47D-LTED cells in CSS medium, (ii) siNT or siPKCβ-transfected MCF7AC1 cells in CSS medium and (iii) T47D cells in FBS versus CSS medium were analyzed by crystal violet staining assay after 6 days of treatment or siRNA transfection as previously described. Cell viability was calculated as the average absorbance of the drug treated cells divided by the average absorbance of the vehicle treated cells × 100.
# [5] = CSS medium, 24 h, not at 0.01 and 0.1 μM
structure (smiles),measurement,setting,value
"CC/C(=C(\c1ccc(O)cc1)c1ccc(OCCNC)cc1)c1ccccc1 [ENDX, Z-endoxifen]",In vivo antitumor activity,[1],superior in vivo antitumor activity compared to TAM and letrozole
same,Effect on AKT^Thr308 phosphorylation,"[2]; CSS medium, 24 h, 5 µM",did not alter AKT^Thr308 phosphorylation
same,Concentration increasing PARP cleavage,"[2]; CSS medium, 24 h, 0.01, 0.1 and 5 µM tested",5 µM
same,Effect on AKT^Thr308 phosphorylation,"[2]; CSS medium, 24 h, 0.01 and 0.1 µM",stimulated AKT^Thr308 phosphorylation
same,Concentration attenuating AKT^Ser473 phosphorylation,[2]; [5],5 µM
same,Concentration reducing phosphorylation of AKT substrates,[2]; [5],5 µM
same,Effect on insulin-stimulated AKT^Thr308 phosphorylation,"[2]; serum starved, 100 nM insulin 1 h, 5 μM",able to block AKT^Thr308 phosphorylation
same,Effect on insulin-stimulated phosphorylation of AKT substrates,"[2]; serum starved, 2 h pretreatment, 100 nM insulin 1 h, 5 µM",diminished insulin-stimulated phosphorylation of AKT substrates
same,Concentration blocking insulin-stimulated AKT^Ser473 phosphorylation,"[2]; serum starved, 2 h pretreatment, 100 nM insulin 1 h, not at 0.01 and 0.1 μM",5 µM
same,Effect on PMA-stimulated AKT^Ser473 phosphorylation,"[2]; serum starved, 2 h pretreatment, 200 nM PMA 20 min, 5 μM",reduced AKT^Ser473 phosphorylation
same,IC50,PKC nu (PKCn/PRKD3),26.4 µM
same,Effect on PKCβ1^Ser661 phosphorylation in insulin treated cells,PKCβ1 in MCF7AC1 cells; 100 nM insulin 1 h,no effects on PKCβ1^Ser661 phosphorylation
same,Effect on PKCβ1 total protein in insulin treated cells,"PKCβ1 in MCF7AC1 cells; 100 nM insulin 1 h, ENDX 0.01, 0.1, 5 µM, TAM 0.1 µM, ICI 0.1 µM",reduced PKCβ1 total protein levels
same,Effect on PMA-stimulated PKCβ1^Ser661 phosphorylation,PKCβ1 in MCF7AC1 cells; 5 μM,minimal
same,Effect on PMA-stimulated PKCβ1^Ser661 phosphorylation,"PKCβ1 in MCF7AC1 cells; 0.01, 0.1 μM",no
same,Concentration robustly reducing PKCβ1 total protein levels,"PKCβ1 in MCF7AC1 cells; PMA-stimulated, 0.01, 0.1 and 5 μM tested",5 µM
same,Effects on the bone,[3],"increasing cancellous and cortical bone mass, reducing bone turnover, and protecting against bone loss"
same,Concentrations at which growth was inhibited,BT549 cells,> 7.5 µM
same,Concentrations at which growth was inhibited,MDAMB436 cells,> 7.5 µM
same,IC50,PKC zeta (PKCz),48.1 µM
same,Effect on uterine weight and epithelial cell height,[4]; intact rats,substantially lowered uterine weight and increased epithelial cell height
same,Uterotrophic potency,[4]; ovariectomized Sprague-Dawley rats,less potent than estradiol in eliciting uterotrophic effects
same,IC50,PKC eta (PKCh),> 50 µM
same,Concentrations that significantly reduced cell viability,MCF7AC1 cells,≥ 2.5 µM
